Reference: patent publication US20050288323A1, “Octahydro-indolizine and quinolizine and hexahydro-pyrrolizine” (priority 2000, published 2005)

Key:
[1] = molecular target: T1, human histamine H3 receptor (Homo sapiens, UniProt Q9Y5N1); assay: [3H]-N-methylhistamine binding
T1 construct: One microgram of supercoiled H3 receptor cDNA was added to the cells and mixed; expressed in transfected cells; membranes
How it was run: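 Membranes from SK-N-MC cells stably transfected with human H3 receptor, incubated 45 min at 25° C. with 0.8 nM [3H]-N-methylhistamine in Tris/EDTA pH 7.4. Filtration and scintillation counting; 10 μM histamine defined non-specific binding. Ki from IC50 via Cheng-Prusoff (Kd 800 pM, [L] 800 pM).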

[2] = [3H]-N-methylhistamine 0.8 nM, membranes of H3 receptor-expressing SK-N-MC cells
[3] = Table 5, [3H]-N-methylhistamine binding

T1 sequence (Q9Y5N1 whole entry): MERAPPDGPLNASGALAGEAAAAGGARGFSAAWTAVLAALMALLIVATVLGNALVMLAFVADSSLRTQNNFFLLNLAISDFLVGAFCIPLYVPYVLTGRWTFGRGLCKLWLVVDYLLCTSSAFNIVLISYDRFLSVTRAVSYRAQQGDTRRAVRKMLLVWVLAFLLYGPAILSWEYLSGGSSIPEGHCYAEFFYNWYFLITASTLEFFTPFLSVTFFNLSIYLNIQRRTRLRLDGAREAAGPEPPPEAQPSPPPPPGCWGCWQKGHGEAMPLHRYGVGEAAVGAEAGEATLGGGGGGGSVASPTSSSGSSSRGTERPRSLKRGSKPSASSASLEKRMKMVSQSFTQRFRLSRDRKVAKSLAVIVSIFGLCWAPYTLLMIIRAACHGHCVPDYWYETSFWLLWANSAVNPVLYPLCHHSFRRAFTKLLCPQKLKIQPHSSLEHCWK

SMILES | Ki [1, 2] [µM] | other results
c1cc([C@H]2CC3CCCCN3C2)ccc1OCCCN1CCCCC1 (mixture of isomers) [Example 68, anti-2-(4-(3-Piperidinylpropoxy)phenyl)octahydroindolizine] | 0.0002 | 
c1coc(CNc2ccc([C@H]3CC[C@H]4CCCCN43)cc2)c1 (racemic) [Example 130] |  | Ki [1, 3]: 0.647 µM
Brc1cccc([C@H]2CC[C@H]3CCCCN32)c1 (racemic) |  | melting point: 195 to 198 °C
Brc1ccc([C@@H]2CC[C@H]3CCCCN32)cc1 (racemic) [Example 2] |  | Ki ([1]; Table 1, [3H]-N-methylhistamine binding): 1 µM
c1cnc(Sc2ccc([C@H]3CC[C@H]4CCCCN43)cc2)nc1 (racemic) [Example 32] |  | Ki ([1]; Table 2, [3H]-N-methylhistamine binding): 0.65 µM
CC(C)(C)OC(=O)N1CCC(Nc2ccc([C@H]3CC[C@H]4CCCCN43)cc2)CC1 (racemic) [Example 100] | 0.517 | 
CN(C)CCNc1cccc([C@H]2CC[C@H]3CCCCN32)c1 (racemic) [Example 56, tran-3-[4-(3-(2-Dimethylaminoethyl)amino)phenyl]octahydroindolizine] | 0.075 | 
CS(=O)(=O)N1CCC(Nc2ccc([C@H]3CC[C@H]4CCCCN43)cc2)CC1 (racemic) [Example 102, trans-3-[4-(N-Methylsulfonyl-4-aminopiperidine)phenyl]octahydroindolizine] | 0.243 | 
CN(c1ccc([C@H]2CC[C@H]3CCCCN32)cc1)S(C)(=O)=O (racemic) [Example 99, trans-3-(4-(N-Methyl-N-methylsulfonylamido)phenyl)octahydroindolizine] | > 5 | 
Nc1cccc(-c2ccc([C@H]3CC[C@H]4CCCCN43)cc2)c1 (racemic) [Example 48] |  | Ki ([1]; Table 3, [3H]-N-methylhistamine binding): 0.665 µM
O=S(=O)(CCN1CCCCC1)Nc1ccc([C@H]2CC[C@H]3CCCCN32)cc1 (racemic) [Example 120, trans-3-{4-[(2-Piperidylethyl)sulfonyl]amidophenyl}octahydroindolizine] | 0.011 | 
CN(CCCN1CCCCC1)c1ccc([C@@H]2CC[C@@H]3CCCCN32)cc1 (relative stereo) [Example 110, trans-3-[4-(N-Methyl-N-3-piperidylpropylamino)phenyl]octahydroindolizine] | 0.002 | 
CN(CCCCCN1CCCCC1)c1ccc([C@@H]2CC[C@@H]3CCCCN32)cc1 (relative stereo) [Example 114, trans-3-[4-(N-Methyl-N-5-piperidylpentylamino)phenyl]octahydroindolizine] | 0.009 | 
CN1CCCCC1CCOc1ccc([C@H]2CC[C@H]3CCCCN32)cc1 (mixture of isomers) [Example 87, trans-3-{4-[2,2′-(N-Methylpiperidinyl)ethoxy]phenyl}octahydroindolizine] | 0.007 | 
c1cc(CNc2ccc([C@H]3CC[C@H]4CCCCN43)cc2)ccn1 (racemic) [Example 131] |  | Ki [1, 3]: 0.511 µM
O=C(O)c1ccc(Sc2ccc([C@H]3CC[C@H]4CCCCN43)cc2)cc1 (racemic) [Example 42, tran-3-[4-(4-Carboxylicphenylthio)phenyl]octahydroindolizine] | 0.021 | 
O=C(c1ccc(Cl)cc1)c1ccc([C@H]2CC[C@H]3CCCCN32)cc1 (racemic) [Example 124, trans-3-{4-[(4-Chlorophenyl)methan-1-oxo]phenyl}octahydroindolizine] | 0.368 | 
O=S(=O)(Nc1ccc([C@@H]2CC[C@@H]3CCCCN32)cc1)C1CCCNC1 (relative stereo) [Example 117, trans-3-[4-(3-Piperidylsulfonylamino)phenyl]octahydroindolizine] | 0.004 | 
